Measurements taken from the NIST ThermoML archive (doi:10.1021/je400722h).
± gives the expanded uncertainty stated by the source.

Assays:
[1] = 101 kPa, Liquid; for speed of sound: Pulse-echo method; for mass density: Vibrating tube method
[2] = xn = mol fraction of the nth substance listed; details: 101 kPa, Liquid, x2 = 0; for speed of sound: Pulse-echo method; for mass density: Vibrating tube method

speed of sound ([1]; 298.15 K) | mass density ([1]; 298.15 K) | speed of sound ([1]; 303.15 K) | mass density ([1]; 303.15 K) | speed of sound ([1]; 308.15 K) | mass density ([1]; 308.15 K) | speed of sound ([2]; 298.15 K) | mass density ([2]; 298.15 K) | speed of sound ([2]; 303.15 K) | mass density ([2]; 303.15 K) | speed of sound ([2]; 308.15 K) | mass density ([2]; 308.15 K) | SMILES
1338.7 ± 1.1 m/s | 1058.9 ± 1 kg/m3 | 1316.8 ± 1 m/s | 1052.6 ± 1 kg/m3 | 1294.7 ± 1 m/s | 1046.3 ± 1 kg/m3 | – | – | – | – | – | – | C1COCO1 [1,3-dioxolane]
– | – | – | – | – | – | 1338.7 ± 1.1 m/s | 1058.9 ± 1 kg/m3 | 1316.8 ± 1 m/s | 1052.6 ± 1 kg/m3 | 1294.7 ± 1 m/s | 1046.3 ± 1 kg/m3 | C1COCO1 [1,3-dioxolane] + Cc1ccccc1Cl
1346 ± 1.1 m/s | 1027.9 ± 1 kg/m3 | 1324.4 ± 1.1 m/s | 1022.3 ± 1 kg/m3 | 1302.5 ± 1.1 m/s | 1016.6 ± 1 kg/m3 | – | – | – | – | – | – | C1COCCO1 [1,4-dioxane]
– | – | – | – | – | – | 1346 ± 1.1 m/s | 1027.9 ± 1 kg/m3 | 1324.4 ± 1.1 m/s | 1022.3 ± 1 kg/m3 | 1302.5 ± 1.1 m/s | 1016.6 ± 1 kg/m3 | C1COCCO1 [1,4-dioxane] + Cc1ccccc1Cl
1298.7 ± 1.2 m/s | 1077.3 ± 1 kg/m3 | 1280.7 ± 1.2 m/s | 1072.5 ± 1 kg/m3 | 1262.7 ± 1.2 m/s | 1067.6 ± 1 kg/m3 | – | – | – | – | – | – | Cc1ccccc1Cl [2-chlorotoluene]
1269.8 ± 1 m/s | 879.13 ± 1 kg/m3 | 1246.8 ± 1 m/s | 873.99 ± 1 kg/m3 | 1224.4 ± 1 m/s | 868.83 ± 1 kg/m3 | – | – | – | – | – | – | C1CCOCC1 [tetrahydropyran]
– | – | – | – | – | – | 1269.8 ± 1 m/s | 879.13 ± 1 kg/m3 | 1246.8 ± 1 m/s | 873.99 ± 1 kg/m3 | 1224.4 ± 1 m/s | 868.83 ± 1 kg/m3 | C1CCOCC1 [tetrahydropyran] + Cc1ccccc1Cl
